In patent US10106556B2, “Heterocyclic compound” (TAKEDA PHARMACEUTICAL COMPANY LIMITED, priority 2015, dated 2018):

Target: T1, His-hMAGL (recombinant polyhistidine tagged human MAGL protein) (Homo sapiens, UniProt Q99685)
T1 construct: made in house; host or cells: E. coli BL21(DE3)
T1 sequence (Q99685 1-303): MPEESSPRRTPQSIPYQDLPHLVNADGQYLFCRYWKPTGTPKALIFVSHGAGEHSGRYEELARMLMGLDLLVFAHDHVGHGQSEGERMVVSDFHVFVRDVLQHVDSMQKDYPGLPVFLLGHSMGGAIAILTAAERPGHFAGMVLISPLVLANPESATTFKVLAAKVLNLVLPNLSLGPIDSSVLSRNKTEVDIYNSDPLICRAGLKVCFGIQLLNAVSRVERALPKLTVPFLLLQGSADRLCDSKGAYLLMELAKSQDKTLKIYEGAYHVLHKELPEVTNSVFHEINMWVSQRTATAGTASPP
Assay: Measurement of MAGL inhibitory activity (arachidonic acid production from 2-arachidonylglycerol, RapidFire-mass spectrometry)
Format: biochemical
Settings: MAGL inhibitory rate at 10 μM test compound, 60 min preincubation with His-hMAGL, 2-arachidonylglycerol substrate, 10 min reaction at room temperature
Procedure: Furthermore, acetonitrile (50 μL) containing 3 μM arachidonic acid-d8 (Cayman Chemical Company) was added and the mixture was stirred.
The amount of arachidonic acid in the obtained enzyme reaction mixture was calculated by measuring by RapidFire-mass spectrometry and correcting by the amount of arachidonic acid-d8. High Throughput online solid phase extraction was performed using RapidFire 300™ system (Agilent Technologies, Inc.). Samples were loaded on SPE C4 cartridge (Agilent Technologies, Inc.) and desalted with 0.2 (v/v) % acetic acid (Wako Pure Chemical Industries, Ltd.) in ultrapure water/acetonitrile (70/30, v/v) at a flow rate of 1.5 mL/min, eluted at a flow rate of 0.5 mL/min with 0.2 (v/v) % acetic acid dissolved in acetonitrile/ultrapure water (90/10, v/v), and injected into the mass spectrometry part. The injection needle was washed with ultrapure water (500 millisecond) and acetonitrile (500 millisecond) to minimize carry-over. […] The RapidFire300 system was controlled by RapidFire UI software version 3.6 (Agilent Technologies, Inc.).
The mass spectrometry of the resultant product was performed using API4000™ triple quadrupole mass spectrometer (AB SCIEX) equipped with an electrospray ion sauce (TurboIon Spray™) in a negative selected reaction monitoring (SRM) mode. The conditions of SRM are shown below. The parameters of the instrument were optimized as follows: capillary temperature 600° C., ion spray voltage −4.5 kV, collision gas 8, curtain gas 15 psi, ion source gas 1 60 psi, ion source gas 2 60 psi. The mass spectrometer was controlled by Analyst™ software version 1.5.1 (AB SCIEX). The peak area integration was analyzed using RapidFire integrator software version 3.6 (Agilent Technologies, Inc.).
MAGL inhibitory rate (%) was calculated according to the following calculation formula. (1−(arachidonic acid production amount of test compound addition group−arachidonic acid production amount of enzyme−free group)÷(arachidonic acid production amount of test compound-free group−arachidonic acid production amount of enzyme-free group))×100

Compound	inhibition at 10 µM	% inhibition (10 μM) (10 µM)
O=C1COc2ncc(C(=O)N3CC(COCc4ccccc4)C3)cc2N1 [Example 14, 7-((3-((benzyloxy)methyl)azetidin-1-yl)carbonyl)-1H-pyrido[2.3-b][1,4]oxazin-2(3H)-one]	80%	–
O=C1COc2ncc(C(=O)N3CCC(COc4ccc(Cl)cc4Cl)CC3)cc2N1 [Example 17, 7-((4-((2,4-dichlorophenoxy)methyl)piperidin-1-yl)carbonyl)-1H-pyrido[2,3-b][1,4]oxazin-2 (3H)-one]	101%	–
O=C1COc2cc(F)c(C(=O)N3CC(COc4ccc(-c5ccccc5)cc4)C3)cc2N1 [Example 108, 6-((3-((biphenyl-4-yloxy)methyl)azetidin-1-yl)carbonyl)-7-fluoro-2H-1,4-benzoxazin-3(4H)-one]	99%	–
CC(Oc1ccc(F)c(F)c1)C1CN(C(=O)c2cc3c(cc2F)OCC(=O)N3)C1 (centres unmarked) [Example 312, 6-((3-(1-(3,4-difluorophenoxy)ethyl)azetidin-1-yl)carbonyl)-7-fluoro-2H-1,4-benzoxazin-3(4H)-one]	–	101%
Cc1cc(Cl)ccc1OCC1CCN(C(=O)c2ccc3c(c2)NC(=O)CO3)CC1 [Example 37, 6-((4-((4-chloro-2-methylphenoxy)methyl)piperidin-1-yl)carbonyl)-2H-1,4-benzoxazin-3(4H)-one]	101%	–
O=C1COc2cc(F)c(C(=O)N3CCC(COc4ccc(Cl)nc4Cl)CC3)cc2N1 [Example 71, 6-((4-(((2,6-dichloropyridin-3-yl)oxy)methyl)piperidin-1-yl)carbonyl)-7-fluoro-2H-1,4-benzoxazin-3(4H)-one]	100%	–
O=C1COc2cc(F)c(C(=O)N3CC(COc4ccc(Br)cc4F)C3)cc2N1 [Example 194, 6-((3-((4-bromo-2-fluorophenoxy)methyl)azetidin-1-yl)carbonyl)-7-fluoro-2H-1,4-benzoxazin-3(4H)-one]	103%	–
O=C1COc2cc(F)c(C(=O)N3CC(COc4cccc(Cl)c4F)C3)cc2N1 [Example 135, 6-((3-((3-chloro-2-fluorophenoxy)methyl)azetidin-1-yl)carbonyl)-7-fluoro-2H-1,4-benzoxazin-3(4H)-one]	101%	–
O=C1COc2cc(F)c(C(=O)N3CC(COc4ccc(Br)cc4)C3)cc2N1 [Example 182, 6-((3-((4-bromophenoxy)methyl)azetidin-1-yl)carbonyl)-7-fluoro-2H-1,4-benzoxazin-3(4H)-one]	98%	–
CC(C)c1ccccc1OCC1CN(C(=O)c2cc3c(cc2F)OCC(=O)N3)C1 [Example 160, 7-fluoro-6-((3-((2-isopropylphenoxy)methyl)azetidin-1-yl)carbonyl)-2H-1,4-benzoxazin-3(4H)-one]	100%	–
Cc1ccc(OCC2CN(C(=O)c3cc4c(cc3F)OCC(=O)N4)C2)c(F)c1 [Example 164, 7-fluoro-6-((3-((2-fluoro-4-methylphenoxy)methyl)azetidin-1-yl)carbonyl)-2H-1,4-benzoxazin-3(4H)-one]	102%	–
O=C1COc2cc(F)c(C(=O)N3CC(OCc4ccccc4F)C3)cc2N1 [Example 330, 7-fluoro-6-((3-((2-fluorobenzyl)oxy)azetidin-1-yl)carbonyl)-2H-1,4-benzoxazin-3(4H)-one]	102%	–
O=C1COc2cc(F)c(C(=O)N3CC(OCc4ccccc4Cl)C3)cc2N1 [Example 342, 6-((3-((2-chlorobenzyl)oxy)azetidin-1-yl)carbonyl)-7-fluoro-2H-1,4-benzoxazin-3(4H)-one]	102%	–
O=C1COc2cc(F)c(C(=O)N3CC(COc4ccc5c(c4Br)CCCC5)C3)cc2N1 [Example 286, 6-((3-(((1-bromo,-5,6,7,8-tetrahydronaphthalen-2-yl)oxy)methyl)azetidin-1-yl)carbonyl)-7-fluoro-2H-1,4-benzoxazin-3(4H)-one]	98%	–
Cc1ccc(OCC2CCN(C(=O)c3ccc4c(c3)NC(=O)CO4)CC2)c(Cl)n1 [Example 40, 6-((4-(((2-chloro-6-methylpyridin-3-yl)oxy)methyl)piperidin-1-yl)carbonyl)-2H-1,4-benzoxazin-3(4H)-one]	95%	–
O=C1COc2cc(F)c(C(=O)N3CC(COc4cc(Cl)cc(Cl)c4)C3)cc2N1 [Example 127, 6-((3-((3,5-dichlorophenoxy)methyl)azetidin-1-yl)carbonyl)-7-fluoro-2H-1,4-benzoxazin-3(4H)-one]	99%	–
O=C1COc2cc(F)c(C(=O)N3CC(COC4CCC(F)(F)CC4)C3)cc2N1 [Example 282, 6-((3-(((4,4-difluorocyclohexyl)oxy)methyl)azetidin-1-yl)carbonyl)-7-fluoro-2H-1,4-benzoxazin-3(4H)-one]	99%	–
N#Cc1cccc(OCC2CCN(C(=O)c3cc4c(cc3F)OCC(=O)N4)CC2)c1Cl [Example 75, 2-chloro-3-((1-((7-fluoro-3-oxo-3,4-dihydro-2H-1,4-benzoxazin-6-yl)carbonyl)piperidin-4-yl)methoxy)benzonitrile]	102%	–
O=C1COc2cc(F)c(C(=O)N3CC(COc4ccc(F)cc4Cl)C3)c(F)c2N1 [Example 281, 6-((3-((2-chloro-4-fluorophenoxy)methyl)azetidin-1-yl)carbonyl)-5,7-difluoro-2H-1,4-benzoxazin-3(4H)-one]	100%	–
O=C1COc2cc(F)c(C(=O)N3CC(COc4ccc5ccccc5c4)C3)cc2N1 [Example 169, 7-fluoro-6-((3-((2-naphthyloxy)methyl)azetidin-1-yl)carbonyl)-2H-1,4-benzoxazin-3(4H)-one]	97%	–
O=C1COc2cc(F)c(C(=O)N3CC(COc4ccc(Cl)cc4-c4cncc(Cl)c4)C3)cc2N1 [Example 201, 6-((3-((4-chloro-2-(5-chloropyridin-3-yl)phenoxy)methyl)azetidin-1-yl)carbonyl)-7-fluoro-2H-1,4-benzoxazin-3(4H)-one]	101%	–
O=C1COc2cc(F)c(C(=O)N3CC(COc4ccc(Cl)cc4-c4ccncc4Cl)C3)cc2N1 [Example 210, 6-((3-((4-chloro-2-(3-chloropyridin-4-yl)phenoxy)methyl)azetidin-1-yl)carbonyl)-7-fluoro-2H-1,4-benzoxazin-3(4H)-one]	101%	–
COc1cc(Cl)ccc1OCC1CN(C(=O)c2cc3c(cc2F)OCC(=O)N3)C1 [Example 115, 6-((3-((4-chloro-2-methoxyphenoxy)methyl)azetidin-1-yl)carbonyl)-7-fluoro-2H-1,4-benzoxazin-3(4H)-one]	103%	–
N#Cc1cc(Cl)ccc1OCC1CN(C(=O)c2cc3c(cc2F)OCC(=O)N3)C1 [Example 119, 5-chloro-2-((1-((7-fluoro-3-oxo-3,4-dihydro-2H-1,4-benzoxazin-6-yl)carbonyl)azetidin-3-yl)methoxy)benzonitrile]	102%	–
O=C1COc2cc(F)c(C(=O)N3CC(COc4ccc(C5=CCOCC5)cc4F)C3)cc2N1 [Example 244, 6-((3-((4-(3,6-dihydro-2H-pyran-4-yl)-2-fluorophenoxy)methyl)azetidin-1-yl)carbonyl)-7-fluoro-2H-1,4-benzoxazin-3(4H)-one]	100%	–
N#Cc1ccccc1OCC1CCN(C(=O)c2ccc3c(c2)NC(=O)CO3)CC1 [Example 30, 2-((1-((3-oxo-3,4-dihydro-2H-1,4-benzoxazin-6-yl)carbonyl)piperidin-4-yl)methoxy)benzonitriie]	98%	–
